Patent US12667605B2, “Pharmaceutical composition for oral administration of a GLP-1 receptor agonist” (priority 2021, dated 2026)

Columns and labels:
Format in all cases: in vitro ADME
[1] = Stability of semaglutide compared to Rybelsus in simulated gastric medium pH 1.2 without pepsin (Example 4, HPLC); conditions: for Residual semaglutide content in percent (%): buffered solution, simulated gastric medium pH 1.2 without pepsin, 0.05 mg/mL of semaglutide, 37° C.
Experimental: (§1) The gastro-resistance tests with semaglutide were carried out at a concentration of 0.05 mg/mL (5 mg of semaglutide in final 100 mL). The simulated gastric medium was prepared following the same protocol as that described in Example 3.
(§2) The product Rybelsus® comprises Semaglutide, Sodium Salcaprozate (SNAC), Povidone, Microcrystalline Cellulose, and Magnesium Stearate. • Step 1) A 14 mg Rybelsus® tablet was used for the comparative tests and was dissolved in 50 mL of drinking water for thirty minutes with stirring. The final semaglutide concentration was 0.28 mg/mL. • Step 2) An effervescent tablet (according to Example 1A) was added or not to the solution obtained in step 1. After cessation of effervescence, 50 ml of 0.2 N HCL at pH 1.2 were added to obtain a final solution of 100 ml of 0.1 N HCL, which corresponds to the simulated gastric environment. The final concentration of semaglutide is 14 mg per 100 mL. • Step 3) The pepsin was then added or not to the solution obtained in step 2, at the conventional dose of 3.2 mg/ml. The test was carried out for 2 hours at a temperature of 37° C.
The semaglutide content was specifically assayed by high performance liquid chromatography (HPLC). The residual content was calculated by measuring the semaglutide content at time t relative to the initial semaglutide content. The result is a ratio expressed in percent (%). The residual content of semaglutide corresponds to the percentage of protection of the semaglutide.

pepsin [2] = target: T1, pepsin (Sus scrofa, UniProt P00791); assay: Protection of semaglutide compared to Rybelsus under gastric conditions reproduced in vitro, with pepsin (Example 4, HPLC); conditions: buffered solution; simulated gastric medium pH 1.2 with pepsin (3.2 mg/mL); 0.05 mg/ml of semaglutide; T = 2 h; 37° C.
Experimental: as §1, §2
The semaglutide content was specifically assayed by high performance liquid chromatography (HPLC). The residual content was calculated by measuring the semaglutide content at time t relative to the initial semaglutide content. The result is a ratio expressed in percent (%). […]

pepsin [3] = target: T1, pepsin; assay: Protection of semaglutide under gastric conditions reproduced in vitro, with pepsin (Example 2, UHPLC-UV); conditions: for Semaglutide residual content (%): simulated gastric medium at pH 1.2 with pepsin (3.2 mg/ml), 0.05 mg/ml semaglutide, 37° C.
Experimental: (§3) The purpose of this test is to show the gastric stability of semaglutide in a composition according to the invention. • Step 1) The tablet obtained in Example 1A was dissolved in 50 mL of drinking water in order to obtain a buffered solution. • Step 2) The simulated gastric medium was prepared with hydrochloric acid (0.2 N HCl), adjusting the pH to 1.2. • Step 3) The buffered solution obtained in step 1) was mixed with 50 ml of simulated gastric medium, in order to obtain a final solution of 100 ml with 0.1 N HCL. • Step 4) Semaglutide was added to the solution obtained in step 3), in is order to obtain a final concentration of semaglutide of 0.05 mg/ml. • Step 5) Pepsin was added to the solution obtained in step 4) at a final concentration of 3.2 mg/ml or without addition of pepsin (without pepsin), and the solution obtained was kept under constant stirring at 37° C. for 2 hours.
(§4) The semaglutide assay was performed by ultra-high performance liquid chromatography (UHPLC) coupled to an ultraviolet (UV) detector using an external standard calibration. The residual semaglutide content was calculated by measuring the semaglutide content at time t relative to the initial semaglutide content. The result is a ratio expressed in percent (%). The residual content of semaglutide corresponds to the protection percentage of semaglutide.

[4] = Stability of semaglutide in simulated gastric medium at pH 1.2 without pepsin (Example 2, UHPLC-UV); conditions: for Semaglutide residual content (%): simulated gastric medium at pH 1.2 without pepsin, 0.05 mg/ml semaglutide, 37° C.
Experimental: as §3, §4

T1 sequence (P00791 60-385): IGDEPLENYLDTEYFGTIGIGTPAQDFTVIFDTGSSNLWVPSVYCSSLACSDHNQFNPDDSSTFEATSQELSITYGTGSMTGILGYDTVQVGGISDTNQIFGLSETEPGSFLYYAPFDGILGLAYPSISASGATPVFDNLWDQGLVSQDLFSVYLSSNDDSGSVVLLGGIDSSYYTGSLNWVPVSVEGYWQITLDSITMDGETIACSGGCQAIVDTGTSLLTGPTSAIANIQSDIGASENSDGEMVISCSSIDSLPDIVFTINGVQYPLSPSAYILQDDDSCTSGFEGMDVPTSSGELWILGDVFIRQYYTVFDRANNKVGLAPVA

- Residual semaglutide content in percent (%) ([1]; T = 1 h): 103.5%
- Residual semaglutide content in percent (%) ([1]; T = 2 h): 104.1%
- stability of semaglutide (in words) ([1]; in the absence of pepsin, in the presence of the buffer system): stable
- Residual semaglutide content in percent (%) (pepsin [2]): 105.2%
- residual content (pepsin [3]; acid medium with pepsin and without a buffer system, time not given): 0%
- Semaglutide residual content (%) (pepsin [3]; with the buffered solution (Example 1A tablet)): 104.6%
- Semaglutide residual content (%) (pepsin [3]; without buffer system): 0%
- degradation of semaglutide (in words) ([4]; formulated with a buffer system, after 2 hours, without pepsin): not degraded
- Semaglutide residual content (%) ([4]; with the buffered solution (Example 1A tablet), T 0 h): 103.5%
- Semaglutide residual content (%) ([4]; with the buffered solution (Example 1A tablet), T 2 h): 104.1%
- Semaglutide residual content (%) ([4]; without buffer system, T 0 h): 100%
SMILES: CC[C@H](C)[C@H](NC(=O)[C@H](Cc1ccccc1)NC(=O)[C@H](CCC(=O)O)NC(=O)[C@H](CCCCNC(=O)COCCOCCNC(=O)COCCOCCNC(=O)CC[C@H](NC(=O)CCCCCCCCCCCCCCCCC(=O)O)C(=O)O)NC(=O)[C@H](C)NC(=O)[C@H](C)NC(=O)[C@H](CCC(N)=O)NC(=O)CNC(=O)[C@H](CCC(=O)O)NC(=O)[C@H](CC(C)C)NC(=O)[C@H](Cc1ccc(O)cc1)NC(=O)[C@H](CO)NC(=O)[C@H](CO)NC(=O)[C@@H](NC(=O)[C@H](CC(=O)O)NC(=O)[C@H](CO)NC(=O)[C@@H](NC(=O)[C@H](Cc1ccccc1)NC(=O)[C@@H](NC(=O)CNC(=O)[C@H](CCC(=O)O)NC(=O)C(C)(C)NC(=O)[C@@H](N)Cc1cnc[nH]1)[C@@H](C)O)[C@@H](C)O)C(C)C)C(=O)N[C@@H](C)C(=O)N[C@@H](Cc1c[nH]c2ccccc12)C(=O)N[C@@H](CC(C)C)C(=O)N[C@H](C(=O)N[C@@H](CCCNC(=N)N)C(=O)NCC(=O)N[C@@H](CCCNC(=N)N)C(=O)NCC(=O)O)C(C)C [semaglutide]
